Experimental data: ChEMBL document CHEMBL5727699, “Pyrimido-pyridazinone compounds and methods of use thereof” (2020)

Molecular target: Tyrosine-protein kinase JAK2 (Homo sapiens, UniProt O60674)
Assay: Thirteen μL of assay buffer in blank and substrate control wells and 13 μL of Enzyme buffer mix in positive and test wells was added. The reaction mixture was incubated for 30 minutes at RT on a plate shaker. […] The reaction plate was incubated for 60 minutes at RT on a plate shaker. The reaction was stopped by adding 40 mM EDTA (10 μL) in buffer. Ten μL of antibody was added to all the wells.

Chain of Tyrosine-protein kinase JAK2 (O60674 whole entry): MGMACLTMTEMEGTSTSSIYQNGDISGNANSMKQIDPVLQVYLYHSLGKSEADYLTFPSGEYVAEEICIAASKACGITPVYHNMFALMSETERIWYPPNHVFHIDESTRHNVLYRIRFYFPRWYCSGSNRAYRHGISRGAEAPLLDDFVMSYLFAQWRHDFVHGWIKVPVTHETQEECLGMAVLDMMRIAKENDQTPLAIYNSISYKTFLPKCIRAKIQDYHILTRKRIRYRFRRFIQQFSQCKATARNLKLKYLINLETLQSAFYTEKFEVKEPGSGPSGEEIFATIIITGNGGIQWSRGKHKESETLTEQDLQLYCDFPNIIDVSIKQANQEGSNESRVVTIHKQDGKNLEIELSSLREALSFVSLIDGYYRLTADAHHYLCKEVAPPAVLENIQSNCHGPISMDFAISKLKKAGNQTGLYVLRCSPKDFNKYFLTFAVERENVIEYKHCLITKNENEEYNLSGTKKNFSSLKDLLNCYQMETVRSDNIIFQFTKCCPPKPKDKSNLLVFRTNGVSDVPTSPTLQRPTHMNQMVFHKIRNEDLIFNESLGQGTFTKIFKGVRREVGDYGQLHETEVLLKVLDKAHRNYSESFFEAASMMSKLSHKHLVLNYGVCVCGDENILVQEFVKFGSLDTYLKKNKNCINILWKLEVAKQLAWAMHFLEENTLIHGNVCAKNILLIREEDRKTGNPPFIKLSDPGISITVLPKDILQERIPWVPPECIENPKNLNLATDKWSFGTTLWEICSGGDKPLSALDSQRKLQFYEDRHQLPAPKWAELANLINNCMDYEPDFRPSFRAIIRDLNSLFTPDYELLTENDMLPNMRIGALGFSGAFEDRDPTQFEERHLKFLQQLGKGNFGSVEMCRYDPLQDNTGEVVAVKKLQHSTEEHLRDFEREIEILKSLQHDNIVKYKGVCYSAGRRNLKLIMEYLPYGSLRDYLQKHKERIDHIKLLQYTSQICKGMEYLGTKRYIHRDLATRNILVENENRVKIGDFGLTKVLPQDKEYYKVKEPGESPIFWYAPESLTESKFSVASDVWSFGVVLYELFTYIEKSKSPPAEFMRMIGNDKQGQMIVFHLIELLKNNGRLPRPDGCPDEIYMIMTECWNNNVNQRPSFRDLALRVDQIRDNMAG

CC(C)(C#N)N1CCN(c2ccc(Nc3nc(N4CCCCCC4)nc4cn[nH]c(=O)c34)cc2)CC1
IC50: > 100 nM
